Experiments:
Assay in all cases: relative viability (nuclei count vs DMSO), 5 days (fraction); higher = more cells survive
[1] = compound: Cc1cnc(Nc2ccc(OCCN3CCCC3)cc2)nc1Nc1cccc(S(=O)(=O)NC(C)(C)C)c1 [Fedratinib] + C[C@@H](Oc1cc(-c2cnn(C3CCNCC3)c2)cnc1N)c1c(Cl)ccc(F)c1Cl [Crizotinib] (partner 1 µM)
In short: (§1)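 Values are medians from duplicate plates. Each reflects relative viability, defined as the nuclei count of treated wells over that of vehicle wells. Lung cancer cell lines in 1536-well plates were pin-tool dosed one day after seeding with one drug alone or with a fixed anchor-drug dose plus five library-drug doses (not always all listed) in √10 steps, then fixed, stained and imaged at 4× after 5 days.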

[2] = compound: Cc1cnc(Nc2ccc(OCCN3CCCC3)cc2)nc1Nc1cccc(S(=O)(=O)NC(C)(C)C)c1 [Fedratinib] + O=C(c1cc(Cc2n[nH]c(=O)c3ccccc23)ccc1F)N1CCN(C(=O)C2CC2)CC1 [Olaparib] (partner 8 µM)
In short: as §1

[3] = compound: Cc1cnc(Nc2ccc(OCCN3CCCC3)cc2)nc1Nc1cccc(S(=O)(=O)NC(C)(C)C)c1 [Fedratinib] + CC(C)C[C@H](NC(=O)[C@H](Cc1ccccc1)NC(=O)c1cnccn1)B(O)O [Bortezomib] (partner 0.002 µM)
In short: as §1

[4] = compound: Cc1cnc(Nc2ccc(OCCN3CCCC3)cc2)nc1Nc1cccc(S(=O)(=O)NC(C)(C)C)c1 [Fedratinib] + Nc1ncn([C@H]2C[C@H](O)[C@@H](CO)O2)c(=O)n1 [Decitabine] (partner 2 µM)
In short: as §1

[5] = compound: Cc1cnc(Nc2ccc(OCCN3CCCC3)cc2)nc1Nc1cccc(S(=O)(=O)NC(C)(C)C)c1 [Fedratinib] + COc1cc2c(Oc3ccc(NC(=O)C4(C(=O)Nc5ccc(F)cc5)CC4)cc3F)ccnc2cc1OCCCN1CCOCC1 [Foretinib] (partner 0.25 µM)
In short: as §1

[6] = compound: COC1=CC=C(C=C1)COC2=C(C=C(C=C2)CC3=CN=C(N=C3N)N)OC [GW-2580] + CS(=O)(=O)N1CCN(Cc2cc3nc(-c4cccc5[nH]ncc45)nc(N4CCOCC4)c3s2)CC1 [Pictilisib] (partner 1 µM)
In short: as §1

## UMC-11
[1]; first compound 0.1 µM
  relative viability: 0.573
[1]; first compound 0.3162 µM
  relative viability: 0.581
[1]; first compound 1 µM
  relative viability: 0.379
[2]; first compound 0.1 µM
  relative viability: 0.3
[2]; first compound 0.3162 µM
  relative viability: 0.33
[2]; first compound 1 µM
  relative viability: 0.23
[3]; first compound 0.1 µM
  relative viability: 0.603
[3]; first compound 0.3162 µM
  relative viability: 0.758
[3]; first compound 1 µM
  relative viability: 0.396
[4]; first compound 0.1 µM
  relative viability: 0.61
[4]; first compound 0.3162 µM
  relative viability: 0.603
[4]; first compound 1 µM
  relative viability: 0.551
[5]; first compound 0.1 µM
  relative viability: 1.1
[5]; first compound 0.3162 µM
  relative viability: 0.958
[5]; first compound 1 µM
  relative viability: 0.706
[6]; first compound 0.08 µM
  relative viability: 0.828
[6]; first compound 0.8 µM
  relative viability: 1.01
[6]; first compound 2.53 µM
  relative viability: 0.695
[6]; first compound 8 µM
  relative viability: 0.823
